Data taken from US7683055B2, “Lanthionine-related compounds for the treatment of inflammatory diseases” (Oklahoma Medical Research Foundation, priority 2006, dated 2010).

System: RAW 264.7 macrophages
Experiment: LPS-stimulated nitrite production in RAW 264.7 macrophages
Assay type: cell-based
Conditions: 24-48 h
Description: Primary astrocytes were cultured from neonatal R6/2 transgenic mouse pups (“Htt+”) which are the standard murine model for Huntington's disease (animals commercially obtained from Jackson Labs) or nontransgenic littermates. For RAW cell studies, RAW264.7 macrophages were obtained commercially from American Type Culture Collection. RAW 264.7 macrophages were grown in DMEM plus 10% FBS and 1% Pen/Strep. Cells were maintained in culture according to published methods. Cells were treated with +/−[…] bacterial lipopolysaccharide serotype 0127:B8 (Sigma Chemical)+/−various concentrations of (R)-LKE1 for 24-48 h. (R)-LKE1 was added 30 minutes prior to LPS challenge. Nitrite was measured in the cell culture medium using the Griess diazotization assay. Cells were lysed and Western blots performed for protein expression or in other experiments for ribonuclease protection assays.

With CCOC(=O)[C@@H]1CSCC(C(=O)O)=N1 [(R)-LKE1] the “inhibition of LPS-stimulated nitric oxide production” value was “inhibited LPS stimulated nitric oxide production”.
